This note sets out measurements from patent US9400281B2, “Method of screening of therapeutic agents for K-Ras mutant driven cancers” (PUSAN NATIONAL UNIVERSITY INDUSTRY-UNIVERSITY COOPERATION …, priority 2008, dated 2016).

SMILES strings stand for the structures. Like-named read-outs stand apart in the source and are kept apart here.

Series [1] concerns SNAIL-mediated p53 suppression. The series can be described thus: Effect on SNAIL-mediated p53 reduction in transfected cells. The class given is cell-based. The conditions noted are these: SNAIL (or K-Ras) transfected cells. As to the method: Also, the effect of the chemicals on SNAIL-mediated p53 suppression was checked. As shown in FIGS. 10E and 10F, p53 reduction by co-transfection of SNAIL was blocked by treatment of chemicals by #3 and #9.
The reduction of p53 by SNAIL was confirmed in real time (see FIG. 13D). Expression of p53 in culture-media was checked and within 2 hours, the expression of p53 in media was detected (see FIG. 13E). Moreover, p53 was detected in cytosol as a vesicle-like-structure in SNAIL or K-Ras transfected cells, and finally detected in an extracellular region (see FIG. 13F). Meanwhile, SNAIL was located in vesicle of cytosol with p53 (see FIG. 17A).
Since p53 is reduced by vesicle-like transport, p53 expression was checked by disrupting cytoskeleton-network by Nocodazole (Noc). […] Despite of cytoplasmic vesicle-like staining of p53 in Noc-treated cells, cellular morphology was changed differentially from control cells (see FIG. 14B). Noc blocked the p53 reduction (see FIG. 14C). Median p53 was disappeared by Noc-treatment, whereas p53 was accumulated in cytoplasm as vesicle (see FIGS. 14D and 14E). Aph/Noc blocked the reduction of p53, which was not achieved by LMB (FIGS. 14F and 14G).

A further series relates to A549 and Capan-1. Put plainly: Expression of median (culture media) p53 in A549 and Capan-1. The class given is cell-based. To be noted: A549 and Capan-1, FIG. 15B. As to the method: (§1) Also, protease inhibitor (PMSF) and endocytosis inhibitor (Brefeldin A; BFA) were treated into A549 and Capan-1.
The test system of another series is MDA-MB 468. Put plainly: Western blot of p21 expression in mutant p53 MDA-MB 468 cells. The class given is cell-based, human. To be noted: for Expression ratio of gene to control, p21: DMSO control = 1.0. A general note: Immunoblotting shows a protein as a band on a membrane.
For a further series, the system named is SNAIL-p53 binding. Put plainly: GST pull down assay of SNAIL-p53 binding (Experimental Example 2). Also on record: species or system human. To be noted: FIG. 21. As to the method: GST pull down assay is a method for identifying a binding degree of two proteins. GST-fused SNAIL protein and p53 recombinant protein were prepared and treated with the compound 5o or 7a to identify a binding degree of GST-SNAIL protein and p53 protein. […] If MDM2 is over-expressed, proteolysis of p53 is induced to suppress apoptosis occurring through target genes of p53, and an […] of cells is induced. Although MDM2 is a representative control factor of p53, MDM2 is not applied to K-Ras mutant disease or mutant p53 containing disease.
To perform GST pull down assay, three human SNAIL fragments (residues 1-90, 91-112, and 113-264) and p53 fragments (1-93 and 93-292) were expressed in E. coli as GST-fusion protein. Each of the fragments was loaded on to GSH-agarose, washed, and then eluted using a buffer containing 20 mM reduced glutathione. The eluted fractions were purified using an anionexchange chromatography (HitrapQ). The recombinant human p53 protein (residues 94-292) was expressed in E. coli using the vector pET28A which contains a hexa-histidine tag at the C terminus. The p53 protein including the hexa-histidine tag was purified using Ni-NTA affinity and a size exclusion chromatography (Superdex 200). To confirm the direct binding between p53 and SNAIL, agarose-bead conjugated GST or GST-SNAIL was incubated with His-p539 (histidine-p53) in PBS for 45 minutes at 4° C.. After washing with PBS, the precipitated protein was subjected into SDS-PAGE and western blotting.

Another series relates to A549 cells. The series can be described thus: Xenograft in vivo: A549 cells injected intraperitoneally into athymic mouse. As to the method:
Athymic mouse was obtained from Daehan Biolink Co. Ltd, and raised under temperature and light conditions (20-23° C., cycle of 12 hours light/12 hours darkness) and fed with sterile diet and water freely. After 2 weeks, 1×10^7 A549 cells were inoculated into the athymic mouse (n=21) by intraperitoneal injection. After 2 weeks, each group was divided into three subgroups and PBS, and 10 mg/kg or 20 mg/kg of the compound 5o were intraperitoneally injected once per week for 10 weeks, and vitality thereof was measured. This animal test was approved by the Animal Protection Committee of Pusan National University, and performed according to a guideline presented by the same.

Series [2] concerns MKN45 (K-Ras wild type cancer cell line). The series can be described thus: Cell death rate by tryphan blue cell counting, MKN45. The class given is cell-based. From the text: (§2) To confirm that the p53 induction of the compounds is related to K-Ras, A549 and HCT116, which are K-Ras mutant cancer cell lines, and MKN45, which is K-Ras wild type cancer cell line, were used.
Series [3] has as its system HCT116 (K-Ras mutant cancer cell line). The series can be described thus: Cell death rate by tryphan blue cell counting, HCT116. In kind it is cell-based.
For series [4], the system named is K-Ras mutant cancer cell lines HCT116. Put plainly: Western blot of p53 and p21 expression in K-Ras mutant HCT116 cells. The class given is cell-based. The conditions noted are these: Homo sapiens, HCT-116, HCT116, 10 μM. As to the method: To confirm whether the compounds prepared according to Examples 1 to 5 are effective for inhibiting SNAIL-p53 binding at cell level, the compound was treated into K-Ras mutant cancer cell lines HCT116 and results were analyzed by western blotting.
Oncogenic K-ras suppresses the p53 activity through SNAIL. In the cell line HCT116, SNAIL is always expressed by K-Ras mutation and bound to p53 to suppress normal activity of p53. If the K-Ras mutant cancer cell line HCT116 is treated with a compound for suppressing SNAIL-p53 binding, p53 is normally activated and more expressed, and target genes of p53 are induced.
First, western blotting was performed to detect expression of p53 and p21, which is a target gene of p53. All cell lines used in the present invention were obtained from ATCC, and maintained in 10% FBS-containing RPMI-1640 or DMEM. Protein was extracted with RIPA buffer solution and a membrane loaded with cell lysate through typical SDS-PAGE and gel transfer method was prepared. After blocking with 5% non-fat dry milk, the membrane was subjected into a typical western blot procedure with an antibody corresponding to each gene. Antibodies used herein were obtained from Cell signaling, SantaCruz. p53 activity was confirmed by expression of p21, which is a target gene of p53.

Series [5] has as its system A549 (K-Ras mutant cancer cell line). Put plainly: Cell death rate by tryphan blue cell counting, A549. In kind it is cell-based. To be noted: A549 (A546 [sic]).
From the text: as §2

Another series relates to K-Ras mutated cells. Put plainly: Cell death in K-Ras mutated cells. To be noted: FIG. 11D. In kind it is cell-based.
For a further series, the system named is SNAIL and p53 binding. The series can be described thus: ELISA system for screening SNAIL-p53 binding inhibitors. The conditions noted are these: His-p53 (93-292) and GST SNAIL. Also on record: species or system human. As to the method:
To isolate SNAIL-p53 binding inhibitor, ELISA system was prepared. His-p53 (93-292) was immobilized on 96 well plates using 0.5 PFA. After drying and washing, the 96 well plates were incubated with GST SNAIL with 0.1 μM of chemicals (final concentration). After 1 hour incubation, the 96 well plates were washed with TBST and incubated with anti-GST-antibody (1: 10000, 45 min) and anti-mouse-IgG-HRP (1; 50000, 30 min). After washing twice, plates were incubated with a TMB solution and a stop solution. Measurement was performed using an ELISA plate reader.
(An ELISA detects its analyte on a solid surface through an enzyme-linked reagent.)

The test system of a further series is A549. The series can be described thus: Location of recombinant p53 in A549 whole cell lysate (endocytosis). In kind it is cell-based. To be noted: A549, FIG. 15C. As to the method:
First, A549 and MKN 45 cells were treated with recombinant p53, and their locations were identified. In comparison with control protein (His-lamin A) recovered from media, His-p53 was expressed in whole cell lysate of A549 (FIG. 15A). In addition, His-p53 was completely removed from MKN45 cells and culture media thereof (FIG. 15A).
as §1

The mark [6] stands for this setting: 10 mg/kg i.p. once per week for 10 weeks.
Where [7] appears, read: 20 mg/kg i.p. once per week for 10 weeks.

Consider `CCC(=C/[C@H](C)C/C=C/C(C)=C/[C@@H](C)C(=O)[C@@H](C)[C@H](O)[C@@H](C)C/C(C)=C/C(=O)O)/C=C/[C@@H]1OC(=O)C=C[C@@H]1C` [leptomycin B], for which the “SNAIL-mediated p53 reduction” value in series [1] is given as “did not block the SNAIL-mediated p53 reduction”.

As for `O=S(=O)(F)Cc1ccccc1` [PMSF], the “Expression of median p53” value with A549 and Capan-1 is given as “increased expression of median p53”.

`COc1ccc(OC)c2c1C(=O)C=C(SCCC(=O)O)C2=O` [Compound 5o, 3-(5,8-dimethoxy-1,4-dioxo-naphthalen-2-ylthio)propanoic acid]: the “Expression ratio of gene to control, p21” value with MDA-MB 468 (MDA-MB 468, 5 μM) was 13.5; in the series on MDA-MB 468 (MDA-MB 468, 10 μM), 25.9; in the series with MDA-MB 468 (MDA-MB 468, 20 μM) it was 31.3. Also, the “Expression of p21 (target gene of p53)” value with MDA-MB 468 (p53 mutant-type MDA-MB 468, FIG. 23) is given as “strong”. Further, in the series on SNAIL-p53 binding, the “Binding between GST-SNAIL protein and p53” value is “substantially weak”. In addition, in the series on A549 cells (10 mg/kg and 20 mg/kg, 10 weeks, FIG. 24), the “Tumor-caused death (survival)” value is reported as “tumor-caused death was prevented”. Also, the “Tumor development at tumor site A.C” value is 3 (regression) in the series with A549 cells (setting [6]) and 2 (regression) with A549 cells (setting [7]). The “Tumor development at tumor site Liver” value in the series on A549 cells (setting [6]) and in the series with A549 cells (setting [7]) was 0 in each case. Also, the “Tumor development at tumor site Lung” value in the series with A549 cells (setting [6]) and with A549 cells (setting [7]) was 0 each time. Further, the “Tumor development at tumor site Pancreas” value in the series with A549 cells (setting [6]) and in the series on A549 cells (setting [7]) was 0 in each case. Further, the “Tumor in treated group” value with A549 cells (FIG. 25) is “almost no tumor”. For the same compound, in the series with A549 cells (FIG. 26), the “Overall anatomical abnormal finding according to weight loss or injection of the compound” value is given as “not observed”. Also, the “Cancer cell death rate of compounds with respect to control” value in series [2] (5 μM) is reported as 10 ± 2.9%; in series [2] (20 μM), 18 ± 1.9%; in series [3] (5 μM), 35 ± 3.2%; in series [3] (20 μM) it was 67 ± 2.5%; in series [5] (5 μM) it was 30 ± 4.5%; in series [5] (20 μM), 62 ± 1.7%. The fold induction at 10 µM came out at 2.5 in series [4] (DMSO control = 1.0, read-out: Protein expression ratio of compound to control, p21) and 2.6 in series [4] (DMSO control = 1.0, read-out: Protein expression ratio of compound to control, p53).

Regarding `COc1cc(/C=C/C(=O)O)ccc1O` [ferulic acid], the Cell death entry with K-Ras mutated cells is reported as “evoked cell death”.

Take `O=c1c(O)c(-c2ccc(O)c(O)c2)oc2cc(O)cc(O)c12` [Quercetin]: in the series on SNAIL and p53 binding, the “Inhibition of SNAIL and p53 binding” value is reported as “identified as an inhibitor of SNAIL-p53 interaction”.

On to `C[C@H]1CCC/C=C/[C@@H]2C[C@H](O)C[C@H]2[C@H](O)/C=C/C(=O)O1` [Brefeldin A], for which the “Expression of median p53” value in the series with A549 and Capan-1 is “increased expression of median p53”. In addition, in the series on A549, the “Location of recombinant p53 in whole cell lysate” value is on record as “blocked the location of recombinant p53”.

Consider `COC(=O)Nc1nc2ccc(C(=O)c3cccs3)cc2[nH]1` [Nocodazole], for which the “SNAIL-mediated p53 reduction” value in series [1] is reported as “blocked the SNAIL or K-Ras mediated p53 reduction”.
